# Entries after “also recorded” stand apart in the source; their conditions may differ.
# Assays:
# [1] = Single dose IV and PO PK study in C57BL/6 mice; format: in vivo; conditions: male C57BL/6 mice
# Procedure: C57BL/6 male mice or Han Wistar rats were used, n=3 for each administration route and compound. Single dose of each compound was administered orally (PO, 10 mg/Kg) or by intravenous administration (IV, 1 mg/Kg). Following intravenous and oral administration, blood samples (ca 0.2 mL) were collected and compound amount was measured by HLPC. For IV group, blood samples were collected at 0.083, 0.25, 0.5, 1, 2, 4, 6, 8, and 24 hours post-dose. For PO group, blood samples were collected at 0.25, 0.5, 1, 2, 4, 6, 8, and 24 hours post-dose.
# FABP5 = FABP5 (Homo sapiens (Human), UniProt Q01469); assay: Fluorescence (ANS) competition binding assay, FABP5; conditions: ANS displacement
# Procedure: (§1) This example illustrates a two-step fluorescence binding assay study used to determine the binding affinity of the various inhibitor compounds disclosed herein with the various FABPs: FABP3, FABP4, FABP5 and FABP7. Further secondary screening studies were carried out for compounds with high binding affinities toward the FABPs and based on their ability to activate the nuclear receptors PPARα, PPARγ, or PPARδ.
# (§2) Binding assays for FABP3, FABP4, FABP5 and FABP7 were carried out by fluorescence titrations. His-tagged FABPs were bacterially expressed in E. coli, purified using Ni Sepharose beads, and the equilibrium dissociation constants (Kd) that characterize their interactions with different inhibitor compounds were measured by fluorescence competition assays. The method entails two steps as described in e.g., Lin, Q. et al., “Ligand selectivity of the peroxisome proliferator-activated receptor alpha,” Biochemistry 38, 185-190, doi:10.1021/bi9816094 [pii](1999). In the first step, Kd for the association of the protein with the fluorescent fatty acid probe ANS was measured. Protein (2 μM) was titrated with ANS from a concentrated solution in DMSO. Ligand binding was monitored by following the increase in the fluorescence of the ligand upon binding to the protein, and Kd for the association of ANS with the each FABP was computed from titration curves as described in e.g., Norris, A. W. & Li, E., “Fluorometric titration of the CRABPs,” Methods Mol Biol 89, 123-139 (1998)). In the second step, Kds for binding of non-fluorescent ligands were measured by monitoring their ability to displace ANS in the binding pocket of the protein. Each FABP was precomplexed with ANS at 1:1 molar ratio and titrated with the different compounds whose binding was reflected by a decrease in probe fluorescence. Kds were extracted from the EC50 of the competition curve and the measured Kd for ANS.
# OVCAR5 cells = assay: Proliferation assay (Incucyte confluency), OVCAR5; format: cell-based, human; conditions: 4 days
# Procedure: (§3) COS-7, MDA-MB-231, and HepG2, were cultured in Dulbecco's modified Eagle's medium (DMEM) supplemented with 10% fetal bovine serum (Invitrogen Life Sciences, Carlsbad, CA). BT-549, OVCAR5 and OVCAR8 cells were cultured in L-Glutamine containing RPMI medium supplemented with 10% fetal calf serum (Invitrogen Life Sciences, Carlsbad, CA). The primary Human Mammary Epithelial Cells (HMEC) were cultured in mammary epithelial cell complete medium (basal medium plus rH-Insulin (5 μg/mL); L-Glutamine (6 mM); Epinephrine (1 μM); Apo-Transferrin (5 μg/mL); rH-TGF-α (0.5 ng/mL); ExtractP (0.4%); Hydrocortisone Hemisuccinate (100 ng/mL)).
# (§4) 2000 cells were plated in each well of 96-well plate. The next day cells were treated with compounds and incubated in Incucyte for 4 days. Images taken every 4 hours for the duration of the time were analyzed to calculate percentage of confluency in response to the treatments. Growth inhibition was calculated as 1—(percentage of viable cells out of untreated cells).
# PPARα = PPARα (Homo sapiens (Human), UniProt Q07869); assay: Transcriptional activation assay in COS7 cells, PPARα; format: cell-based; conditions: PPRE luciferase reporter, PD151 and PD152 at 10 μM
# Procedure: (§5) COS-7 were cultured in 6-well plates and co-transfected with either a luciferase reporter driven by 3 copies of a PPRE and expression vector for either PPARδ, PPARα or PPARγ together with a vector harboring cDNA for β-galactosidase, serving as a transfection control. To test whether FABP4 or FABP5 mediate activation of their cognate receptors PPARγ and PPARδ, respectively, cells were also co-transfected with a plasmid harboring sequence of either FABP4 or FABP5. 18 h post-transfection, cells were placed in a serum-free medium and treated with agonist/compound. 18 h. later, cells were lysed, luciferase activity was assayed (Promega, WI, USA) and corrected for transfection efficiency by the activity of β-galactosidase.
# (§6) Transcriptional activation assays were carried out utilizing COS7 cells as described above.
# PPARγ = PPARγ (Homo sapiens (Human), UniProt P37231); assay: Transcriptional activation assay in COS7 cells, PPARγ; format: cell-based; conditions: PPRE luciferase reporter, PD151 and PD152 at 10 μM
# Procedure: as §5, §6
# FABP4 = FABP4 (Homo sapiens (Human), UniProt P15090); assay: Fluorescence (ANS) competition binding assay, FABP4; conditions: ANS displacement
# Procedure: as §1, §2
# MB-231 cells = assay: Proliferation assay (Incucyte confluency), MB-231; format: cell-based; conditions: Homo sapiens, 96 h, 4 days, read-out: IC50, inhibition of proliferation
# Procedure: as §3, §4
# FABP7 = FABP7 (Homo sapiens (Human), UniProt O15540); assay: Fluorescence (ANS) competition binding assay, FABP7; conditions: ANS displacement
# Procedure: as §1, §2
# PPARδ = PPARδ (Homo sapiens (Human), UniProt Q03181); assay: Transcriptional activation assay in COS7 cells, PPARδ; format: cell-based; conditions: PPRE luciferase reporter, PD151 and PD152 at 10 μM
# Procedure: as §5, §6
# OVCAR8 cells = assay: Proliferation assay (Incucyte confluency), OVCAR8; format: cell-based; conditions: Homo sapiens, OVCAR-8, 96 h, 4 days, read-out: IC50, inhibition of OVCAR8 proliferation
# Procedure: as §3, §4
# FABP3 = FABP3 (Homo sapiens (Human), UniProt P05413); assay: Fluorescence (ANS) competition binding assay, FABP3; conditions: ANS displacement
# Procedure: as §1, §2
# BT-549 cells = assay: Proliferation assay (Incucyte confluency), BT-549; format: cell-based; conditions: Homo sapiens, 96 h, 4 days, read-out: IC50, inhibition of proliferation
# Procedure: as §3, §4
# [2] = mouse, plasma, intravenous 1 mg/kg
# Sequence of PPARδ (Q03181 whole entry, species assumed): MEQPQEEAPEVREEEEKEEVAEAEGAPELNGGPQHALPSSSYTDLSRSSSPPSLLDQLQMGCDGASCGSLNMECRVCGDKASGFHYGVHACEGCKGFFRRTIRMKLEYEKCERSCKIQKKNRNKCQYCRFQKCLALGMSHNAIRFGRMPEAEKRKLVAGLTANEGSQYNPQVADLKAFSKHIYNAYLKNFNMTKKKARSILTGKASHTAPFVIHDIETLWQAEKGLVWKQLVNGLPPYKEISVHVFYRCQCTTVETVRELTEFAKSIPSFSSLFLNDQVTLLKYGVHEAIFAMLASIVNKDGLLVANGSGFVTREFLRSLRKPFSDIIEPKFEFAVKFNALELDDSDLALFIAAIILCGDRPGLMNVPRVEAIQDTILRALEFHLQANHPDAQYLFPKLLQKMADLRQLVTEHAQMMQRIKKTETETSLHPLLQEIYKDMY
# Sequence of PPARα (Q07869 whole entry, species assumed): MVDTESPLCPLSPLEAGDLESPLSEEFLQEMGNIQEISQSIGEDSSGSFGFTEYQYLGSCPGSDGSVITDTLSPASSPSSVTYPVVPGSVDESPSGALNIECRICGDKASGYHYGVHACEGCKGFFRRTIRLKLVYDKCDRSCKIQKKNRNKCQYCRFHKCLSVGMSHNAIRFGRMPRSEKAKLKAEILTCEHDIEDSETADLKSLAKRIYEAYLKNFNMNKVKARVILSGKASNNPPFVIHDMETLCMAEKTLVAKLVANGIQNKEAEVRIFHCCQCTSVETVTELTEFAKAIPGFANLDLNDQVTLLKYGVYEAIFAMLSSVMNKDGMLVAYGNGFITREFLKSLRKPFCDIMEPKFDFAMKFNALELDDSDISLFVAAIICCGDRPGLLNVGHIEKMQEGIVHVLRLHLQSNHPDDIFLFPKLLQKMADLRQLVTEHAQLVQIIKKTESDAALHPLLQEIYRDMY
# Sequence of PPARγ (P37231 whole entry, species assumed): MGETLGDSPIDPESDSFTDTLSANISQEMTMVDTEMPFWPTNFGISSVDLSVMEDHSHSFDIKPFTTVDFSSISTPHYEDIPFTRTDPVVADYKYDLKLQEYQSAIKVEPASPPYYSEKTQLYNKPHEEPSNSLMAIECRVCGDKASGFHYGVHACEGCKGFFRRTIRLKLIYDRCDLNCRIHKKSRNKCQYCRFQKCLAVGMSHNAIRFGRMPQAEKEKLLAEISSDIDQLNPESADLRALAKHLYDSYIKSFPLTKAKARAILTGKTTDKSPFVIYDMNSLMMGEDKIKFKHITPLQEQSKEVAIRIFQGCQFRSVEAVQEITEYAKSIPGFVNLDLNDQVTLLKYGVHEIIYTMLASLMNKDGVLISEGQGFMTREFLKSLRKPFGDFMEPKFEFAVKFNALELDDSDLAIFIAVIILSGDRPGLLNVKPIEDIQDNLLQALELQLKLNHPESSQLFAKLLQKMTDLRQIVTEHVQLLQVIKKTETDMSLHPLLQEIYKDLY
# Sequence of FABP5 (Q01469 whole entry, species assumed): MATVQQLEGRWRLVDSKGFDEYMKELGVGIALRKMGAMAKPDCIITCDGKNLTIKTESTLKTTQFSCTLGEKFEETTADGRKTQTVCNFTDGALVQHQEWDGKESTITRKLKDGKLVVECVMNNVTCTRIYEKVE
# Sequence of FABP4 (P15090 whole entry, species assumed): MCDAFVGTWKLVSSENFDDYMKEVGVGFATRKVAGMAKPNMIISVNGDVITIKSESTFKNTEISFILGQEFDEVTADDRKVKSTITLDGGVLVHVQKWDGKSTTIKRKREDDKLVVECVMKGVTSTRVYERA
# Sequence of FABP3 (P05413 whole entry, species assumed): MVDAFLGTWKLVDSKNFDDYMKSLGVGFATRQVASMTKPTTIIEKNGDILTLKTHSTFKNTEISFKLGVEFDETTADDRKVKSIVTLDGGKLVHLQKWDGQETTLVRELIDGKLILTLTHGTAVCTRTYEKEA
# Sequence of FABP7 (O15540 whole entry, species assumed): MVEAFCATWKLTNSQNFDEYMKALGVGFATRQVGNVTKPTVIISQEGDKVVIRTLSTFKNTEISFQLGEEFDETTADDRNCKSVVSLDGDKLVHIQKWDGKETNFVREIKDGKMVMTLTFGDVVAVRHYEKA
smiles,measurement,setting,value
"CC(C)Oc1nc(NC(=O)CSCC(=O)O)c(Cl)cc1C(F)(F)F [PD151, 2-((2-((3-chloro-6-isopropoxy-5-(trifluoromethyl)pyridin-2-yl)amino)-2-oxoethyl)thio)acetic acid]",Thalf,[1]; oral 10 mg/kg,4 h
same,clearance,[1]; [2],0.318 L/h/kg
same,half-life,[1]; [2],3 to 4 h
same,bioavailability,"[1]; mouse, plasma, single oral dose 10 mg/kg",95%
same,Kd,FABP5,0.016 µM
same,Inhibition of OVCAR5 proliferation,OVCAR5 cells,inhibited proliferation of the two cell lines in a dose-dependent manner
same,Activation of transcription by PPARα,PPARα,None of these tested compounds activated; also recorded: none of the tested compounds PD151 and PD152 activated transcription
same,Activation of transcription by PPARγ,PPARγ,None of these tested compounds activated; also recorded: none of the tested compounds PD151 and PD152 activated transcription
same,Kd,FABP4,0.018 µM
same,IC50,MB-231 cells,0.727 µM
same,Kd,FABP7,> 1 µM
same,Activation of transcription by PPARδ,PPARδ,None of these tested compounds activated; also recorded: none of the tested compounds PD151 and PD152 activated transcription
same,IC50,OVCAR8 cells,0.7 µM
same,Kd,FABP3,0.25 µM
same,IC50,BT-549 cells,1.01 µM

# Reference: patent US20250325529A1, “INHIBITORS OF FATTY ACID BINDING PROTEINS (FABPs), METHODS OF USE AND METHODS OF MAKING” (Celloram, inc., priority 2024, published 2025)
